Source: patent US8247458B2, “Therapeutic agent for diabetic neuropathy” (Taiho Pharmaceutical Co., Ltd., priority 2006, dated 2012)

System: diabetes model rats induced by STZ
Experiment: von Frey test in streptozotocin-induced diabetic neuropathy model rats
Type: in vivo, rat
Details: vs STZ control group; for suppression effect of neuropathy (pain threshold, von Frey test): p value under 0.001%; for analgesic effect (pain threshold, threshold of the escape reaction of limb, von Frey test): first day of the measurement (first dose)
Description: By use of male rats with the weight of more than 160 g, 50 mg/kg of streptozotocin (STZ, Sigma-Aldrich Co.) was administered thereto intravenously at the dose of 2 mL/kg to prepare the diabetes model rats induced by STZ (Malcangio M. et al., Pain, 1998). Animals with the blood sugar level of more than 200 mg/dL were adopted as diabetes models. For the measurements of the blood sugar level, the blood (2 μL) collected from the tail vein was measured by use of a measurement chip (Glutest Sensor, Arkray, Inc.) and a portable instrument for measuring blood sugar of Glutest PRO R (Model GT-1661, Arkray, Inc.).
The pain threshold was measured by carrying out the von Frey test on both right and left foot pats of the rats by use of Dynamic Planter Aesthesiometer (Model No. 37400, Ugo Basile, Inc.), and its maximum pressure was set to be 30.0 g, and the arriving time to the maximum pressure was set to be 40 seconds. Eight days after the administration of STZ, the individuals with the pain threshold of higher than a certain level were selected and divided into the groups so that the measured pain thresholds might become even in each group. To the diabetes model rats induced by STZ was administered continuously for one week either 30 mg/kg of suplatast tosylate intraperitoneally or 100 mg/kg of the same orally, and the intraperitoneally administered group and the orally administered group were produced respectively. The diabetes model rats induced by STZ to which solvent (distilled water) was administered orally were designated to the STZ control group. Moreover, the animals of no treatment, i.e. no administration of STZ, to which solvent (distilled water) was administered orally were used as the normal control group. On the 1st, 4th and 7th days after the administration, were measured the pain thresholds of the right and left foot pats for each of the group (8 rats/group), and the analgesic effect was estimated by the threshold of the escape reaction of limb (the total of pain threshold value both of the right and left foot pats). The pain thresholds were measured from 1 to 1.5 hours after the administration, respectively. The Student's test, which is a test for every 2 groups, was applied to the significant difference test of the average value, and the significant level were shown by the following indications:
## (Normal control group vs. STZ control group): p value under 0.001%, and
** (STZ control group vs. orally administered group or intraperitoneally administered group): p value under 0.001%
The orally administered group and the intraperitoneally administered group were compared with the STZ control groups, respectively. Moreover, the STZ control groups were compared with the normal control groups, and the establishments of the diabetes neuropathy model were respectively judged.

CCOCC(O)COc1ccc(NC(=O)CC[S+](C)C)cc1.Cc1ccc(S(=O)(=O)[O-])cc1 (racemic) [suplatast tosylate, (±)-[2-[4-(3-Ethoxy-2-hydroxypropoxy)phenylcarbamoyl]-ethyl]dimethylsulfonium p-toluenesulfonate]
suppression effect of neuropathy (pain threshold, von Frey test) (30 mg/kg intraperitoneal daily, 4th day): significant suppression effects of neuropathy
suppression effect of neuropathy (pain threshold, von Frey test) (30 mg/kg intraperitoneal daily, 7th day): significant suppression effects of neuropathy
analgesic effect (pain threshold, threshold of the escape reaction of limb, von Frey test) (30 mg/kg intraperitoneal): analgesic effects were not found
suppression effect of neuropathy (pain threshold, von Frey test) (100 mg/kg oral daily, 4th day): significant suppression effects of neuropathy
suppression effect of neuropathy (pain threshold, von Frey test) (100 mg/kg oral daily, 7th day): significant suppression effects of neuropathy
analgesic effect (pain threshold, threshold of the escape reaction of limb, von Frey test) (100 mg/kg oral): analgesic effects were not found
